In the supplement of paper PMC10307832:

Key:
Experiment in all cases: relative viability (nuclei count vs DMSO), 5 days (fraction); higher = more cells survive
[1] = compound: C[C@]1(O)C[C@@H](c2nc(-c3ccc4ccc(-c5ccccc5)nc4c3)c3c(N)nccn32)C1 [Linsitinib] + CCNC(=O)c1noc(-c2cc(C(C)C)c(O)cc2O)c1-c1ccc(CN2CCOCC2)cc1 [Luminespib] (partner 0.01 µM)
Summary of the method: (§1)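 Lung cancer cell lines were seeded in 1536-well plates and dosed by pin tool the next day, with either a single drug or a fixed anchor-drug dose combined with five library-drug doses (not always all listed) spaced in √10 steps. Five days later, one step fixed the cells and stained their nuclei (final 0.05% Triton X-100, 1% formaldehyde, 1 ug/ml Hoechst), and nuclei were counted on 4× images. Relative viability is the nuclei count in treated wells divided by the count in vehicle wells, and each value is the median of duplicate plates.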

[2] = compound: C[C@]1(O)C[C@@H](c2nc(-c3ccc4ccc(-c5ccccc5)nc4c3)c3c(N)nccn32)C1 [Linsitinib] + CS(=O)(=O)N1CCN(Cc2cc3nc(-c4cccc5[nH]ncc45)nc(N4CCOCC4)c3s2)CC1 [Pictilisib] (partner 1 µM)
Summary of the method: as §1

[3] = compound: C[C@]1(O)C[C@@H](c2nc(-c3ccc4ccc(-c5ccccc5)nc4c3)c3c(N)nccn32)C1 [Linsitinib] + Nc1ncn([C@H]2C[C@H](O)[C@@H](CO)O2)c(=O)n1 [Decitabine] (partner 2 µM)
Summary of the method: as §1

[4] = compound: C[C@]1(O)C[C@@H](c2nc(-c3ccc4ccc(-c5ccccc5)nc4c3)c3c(N)nccn32)C1 [Linsitinib] + C[C@@H](Oc1cc(-c2cnn(C3CCNCC3)c2)cnc1N)c1c(Cl)ccc(F)c1Cl [Crizotinib] (partner 1 µM)
Summary of the method: as §1

| Cell Line | relative viability ([1]; first compound 0.01 µM) | relative viability ([1]; first compound 0.03162 µM) | relative viability ([1]; first compound 0.1 µM) | relative viability ([1]; first compound 0.3162 µM) | relative viability ([1]; first compound 1 µM) | relative viability ([2]; first compound 0.01 µM) | relative viability ([2]; first compound 0.03162 µM) | relative viability ([2]; first compound 0.1 µM) | relative viability ([2]; first compound 0.3162 µM) | relative viability ([2]; first compound 1 µM) | relative viability ([3]; first compound 0.01 µM) | relative viability ([3]; first compound 0.03162 µM) | relative viability ([3]; first compound 0.1 µM) | relative viability ([3]; first compound 0.3162 µM) | relative viability ([3]; first compound 1 µM) | relative viability ([4]; first compound 0.01 µM) | relative viability ([4]; first compound 0.03162 µM) | relative viability ([4]; first compound 0.1 µM) | relative viability ([4]; first compound 0.3162 µM) | relative viability ([4]; first compound 1 µM) |
| --- | --- | --- | --- | --- | --- | --- | --- | --- | --- | --- | --- | --- | --- | --- | --- | --- | --- | --- | --- | --- |
| RERF-LC-KJ | 1.12 | 1.15 | 1.42 | 1.13 | 1.1 | 0.593 | 0.55 | 0.538 | 0.44 | 0.429 | 0.726 | 0.651 | 0.622 | 0.599 | 0.665 | 0.803 | 0.816 | 0.849 | 0.731 | 0.739 |
| NCI-H1975 | 0.24 | 0.263 | 0.281 | 0.302 | 0.127 | 0.286 | 0.253 | 0.246 | 0.255 | 0.178 | 0.375 | 0.452 | 0.376 | 0.34 | 0.363 | 0.949 | 0.993 | 0.918 | 0.899 | 0.727 |
| IA-LM | – | – | – | – | – | 0.329 | 0.409 | 0.334 | 0.349 | 0.156 | – | – | – | – | – | 0.763 | 0.775 | 0.736 | 0.656 | 0.496 |
| LCLC-97TM1 | 0.753 | 0.854 | 0.622 | 0.501 | 0.678 | 0.283 | 0.254 | 0.208 | 0.117 | 0.154 | 0.251 | 0.261 | 0.24 | 0.204 | 0.245 | 0.336 | 0.416 | 0.525 | 0.263 | 0.305 |
| NCI-H520 | 0.21 | 0.195 | 0.241 | – | 0.208 | 0.324 | 0.306 | 0.285 | – | 0.284 | 0.456 | 0.59 | 0.501 | – | 0.555 | 0.844 | 0.615 | 0.953 | – | 0.817 |
| A-427 | 0.757 | 0.954 | 1.01 | – | 0.993 | 0.53 | 0.594 | 0.719 | – | 0.688 | 0.597 | 0.595 | 0.577 | – | 0.523 | 0.872 | 0.779 | 1.04 | – | 0.726 |
| ABC-1 | 0.544 | 0.392 | 0.604 | 0.519 | 0.312 | 0.883 | 0.572 | 0.696 | 0.434 | 0.498 | 1.02 | 1.17 | 1.22 | 0.995 | 0.842 | 1.26 | 1.01 | 1.01 | 0.614 | 0.905 |
| NCI-H460 | 0.044 | 0.0373 | 0.033 | 0.0397 | 0.0347 | 0.308 | 0.36 | 0.278 | 0.494 | 0.225 | 0.497 | 0.483 | 0.511 | – | 0.424 | 0.799 | 0.837 | 0.961 | 0.745 | 0.714 |
| NCI-H1395 | 0.672 | 0.585 | 0.616 | 0.63 | 0.732 | 0.568 | 0.603 | 0.618 | 0.573 | 0.556 | 0.691 | – | 0.777 | 0.695 | 0.702 | – | – | – | – | – |
| EBC-1 | – | – | – | – | – | 0.499 | 0.347 | 0.381 | 0.299 | 0.246 | – | – | – | – | – | 0.168 | 0.173 | 0.212 | 0.197 | 0.193 |
| NCI-H23 | 0.218 | 0.207 | 0.211 | 0.219 | 0.203 | 0.445 | 0.412 | 0.521 | 0.184 | 0.395 | 0.305 | 0.314 | 0.322 | 0.264 | 0.298 | 0.416 | 0.445 | 0.591 | 0.351 | 0.451 |
| NCI-H2228 | 0.138 | 0.179 | 0.214 | 0.145 | 0.139 | 0.425 | 0.382 | 0.28 | 0.239 | 0.27 | – | – | – | – | – | 0.411 | 0.419 | 0.399 | 0.298 | 0.398 |
| A549 | – | – | – | – | – | 0.514 | 0.442 | 0.344 | 0.242 | 0.273 | 0.246 | 0.234 | 0.309 | 0.12 | 0.241 | 0.685 | 0.771 | 0.684 | 0.623 | 0.473 |
| NCI-H1563 | 0.599 | 0.607 | 0.51 | 0.486 | 0.525 | 0.665 | 0.668 | 0.647 | 0.657 | 0.545 | – | – | – | – | – | 0.886 | 0.847 | 0.852 | 0.818 | 0.955 |
| NCI-H1703 | – | – | – | – | – | 0.29 | – | 0.216 | 0.28 | 0.234 | – | – | – | – | – | 0.585 | – | 0.595 | 0.93 | 0.35 |
| NCI-H1299 | – | – | – | – | – | 0.864 | 0.794 | 0.766 | 0.796 | 0.648 | – | – | – | – | – | 0.96 | 0.975 | 1 | 0.949 | 0.931 |
| HCC-366 | – | – | – | – | – | 0.127 | 0.0857 | 0.0909 | – | 0.108 | 0.35 | 0.354 | 0.349 | 0.293 | 0.326 | 0.542 | 0.487 | 0.583 | 0.433 | 0.429 |
| NCI-H2342 | 0.662 | 0.754 | 0.702 | 0.714 | 0.536 | – | – | – | – | – | 0.765 | 0.78 | 0.732 | 0.688 | 0.75 | – | – | – | – | – |
| SW 900 | 0.169 | 0.204 | 0.189 | 0.162 | 0.165 | – | – | – | – | – | 0.474 | 0.537 | 0.466 | 0.374 | 0.388 | – | – | – | – | – |
| NCI-H1793 | 0.166 | 0.205 | 0.164 | 0.149 | 0.178 | 0.309 | 0.311 | 0.238 | 0.235 | 0.29 | 0.428 | 0.634 | 0.547 | 0.422 | 0.454 | – | – | – | – | – |
| NCI-H1623 | 0.43 | 0.483 | 0.5 | – | 0.307 | – | – | – | – | – | – | – | – | – | – | – | – | – | – | – |
| HCC-78 | – | – | – | – | – | 0.205 | 0.225 | 0.162 | 0.203 | 0.204 | – | 0.818 | 0.649 | 0.588 | 0.682 | 0.298 | 0.356 | 0.278 | 0.338 | 0.265 |
